Patent US20210094922A1, “Dyes for Analysis of Soluble Protein Aggregates or Misfolded Protein Oligomers” (The Penn State Research Foundation, priority 2018, published 2021)

Key:
[1] = Photophysical parameters of fluorophores in glycerol; type: physicochemical; conditions: for B (brightness): calculated using B = Φϵ; for decrease in brightness relative to 3 / diminished quantum yield relative to 3 / Φ (quantum yield) / λem / λex: in glycerol; for λabs: maximum absorbance measured in glycerol; for ϵ (extinction coefficient): measured in glycerol; for fluorescence in solvents with increasing concentrations of glycerol: glycerol:H2O mixtures
Procedure: FP analogues (20 μM) were prepared in glycerol:H2O mixture with increasing glycerol concentrations. In addition, fluorescence intensity in 1,4-dioxane was measured to evaluate their response to polarity. Fluorescence measurement was carried out using a Tecan infinite M1000Pro fluorescence microplate reader at excitation and emission wavelengths as indicated. All readings were normalized against the fluorescence intensity in 100% glycerol as 1. Error bars: standard error (n=3).
FP analogues (20 μM) were prepared in glycerol. Spectra were collected with emission wavelength of 420 nm for 1, 525 nm for 2, 620 nm for 3, 3a and 3b. All measurements were carried out using a Tecan infinite M1000Pro fluorescence microplate reader.
FP analogues (20 μM) were prepared in glycerol. Spectra were collected with excitation wavelength of 370 nm for 1, 455 nm for 2, 530 nm for 3 and 3b, 485 nm for 3a. All measurements were carried out using a Tecan infinite M1000Pro fluorescence microplate reader.
FP analogues (10 μM) were prepared in glycerol. Spectra were collected with 10 mm quartz cuvette. All measurements were carried out using Agilent 300 UV-Vis spectrophotometer.
However, the quantum yield (QY, Φ=0.001 for 1 and Φ=0.027 for 2 in glycerol, Table 2) was much lower than that of a GFP (Φ=0.79).

[2] = target: SOD1-A4V-Halo (Homo sapiens, UniProt P00441, A5V); assay: In vitro heat-induced aggregation of SOD1-A4V-Halo conjugates; type: biochemical
Chain of SOD1-A4V-Halo (P00441 with tags, fused parts or gaps A5V): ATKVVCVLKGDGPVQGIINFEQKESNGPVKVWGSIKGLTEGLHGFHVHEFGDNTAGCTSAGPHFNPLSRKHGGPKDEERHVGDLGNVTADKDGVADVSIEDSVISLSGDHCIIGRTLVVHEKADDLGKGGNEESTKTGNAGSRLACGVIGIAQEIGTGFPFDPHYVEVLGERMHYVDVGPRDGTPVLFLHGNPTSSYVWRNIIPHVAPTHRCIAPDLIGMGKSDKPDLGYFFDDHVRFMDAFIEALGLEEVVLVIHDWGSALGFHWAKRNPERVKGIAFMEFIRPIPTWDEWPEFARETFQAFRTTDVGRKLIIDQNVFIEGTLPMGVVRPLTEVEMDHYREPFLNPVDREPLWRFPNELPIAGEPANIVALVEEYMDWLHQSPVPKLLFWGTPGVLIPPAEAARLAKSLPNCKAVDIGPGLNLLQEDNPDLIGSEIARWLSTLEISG
Description: (B-C) Excitation and emission spectra of 4 (with misfolded oligomers of SOD1-A4V-Halo) and 5 (with insoluble aggregates of SOD1-A4V-Halo).
The inventors installed Halo-tag reactive warhead to 2, resulting in 5.

[3] = target: T1, α-synuclein (Homo sapiens, UniProt P37840); assay: α-synuclein aggregation assay, fluorogenic detection; type: biochemical
T1 construct: made in house; host or cells: E. coli (pET29b vector)
Procedure: Aggregation of α-synuclein was carried out using method described in the Supporting Information. Subsequently, half of reaction mixture was loaded on a 96-well plate to measure fluorescence intensity of 3 (a) or ThT (b) for the reaction mixture (T). The other half was centrifuged at 21,000 g for 30 minutes at 4° C. The supernatant fraction (S) and pellet fraction (P, after resuspension with a volume that was equal to that of the S fraction) were loaded on a 96-well plate to measure fluorescence intensity. 10 μM 3 or ThT was also incubated in buffer as a control. Parameters for fluorescence measurement: 3 (Ex=530 nm/Em=600 nm) and ThT (Ex=440 nm/Em=480 nm). Error bars: standard error (n=3).
HEK293T cultures were seeded at 25% confluency 24 h prior to transfection in 12-well plate for time dependent fluorescence plate reader analysis or 35 mm glass bottom culture dishes (Poly-d-lysine coated, MatTek Corporation). Cells were grown in DMEM medium supplemented with 10% FBS and penicillin-streptomycin antibiotics until they reached 50-60% confluency. Transfection was performed using X-tremeGene™ 9 DNA transfection reagent (Roche). After 24 h of protein expression and co-translational labeling, medium was replaced with fresh DMEM to diffuse out unbound ligands. After 30 min, media was replaced by fresh DMEM medium containing DMSO vehicle or NaAsO2 (50 μM). Cells were incubated for 18 h, 37° C. in a CO2 incubator. Nuclear stain Hoechst 33342 ([…]) was added to the medium 30 min prior to confocal imaging. Aggregation Assays. α-synuclein: Aggregation solution contained 70 or 140 μM α-synuclein in 20 mM HEPES (pH 7.5) and 100 mM NaCl. 10 μM of 3 or ThT was added to the solution at the beginning of reaction. Previous studies have shown that the kinetics of α-synuclein aggregation is unaffected by the addition of ThT. A volume of 150 μL of the mixture was pipetted into a well of clear-bottom 96-well plate, which was subsequently sealed with Mylar plate sealers. The plate was loaded on a Heidolph vibrating platform shaker and shake at 1,350 rpm at 37° C. At indicated time points, fluorescence reading was obtained using a Tecan M1000Pro fluorescence plate reader. Fluorescence intensity was recorded at Ex=530 nm/Em=600 nm for 3 and Ex=450 nm/Em=480 nm for ThT. Each sample was run in triplicate or quadruplicate. SOD1(V31A): Aggregation was carried out with DPBS buffer containing indicated concentrations of EDTA that is used to chelate the structural metal of SOD1. Aggregation solution contained 42 μM SOD1(V31A) or SOD1(V31A)-Halo and […] of 3 was added to the solution at the beginning of reaction. Reaction was carried out quiescently at indicated temperatures. Fluorescence of 3 was measured at Ex=530 nm/Em=600 nm.

SMILES	B (brightness) [1]	decrease in brightness relative to 3 [1] [fold]	diminished quantum yield relative to 3 [1]	Φ (quantum yield) [1]	λem [1] [nm]	λex [1] [nm]	λabs [1] [nm]	ϵ (extinction coefficient) [1]	fluorescence in solvents with increasing concentrations of glycerol [1]	which POI conformations activate fluorescence [2]	detection of soluble oligomers of α-syn [3]	stoichiometry of fluorescence intensity with α-syn concentration ([3]; 70 vs 140 μM α-syn)
CN(C)c1ccc(/C=C/C2=NC(=C\c3ccccc3)/C(=O)N2CC(=O)OC(C)(C)C)cc1 [Compound 3a, tert-butyl 2-((Z)-4-benzylidene-2-((E)-4-(dimethylamino)styryl)-5-oxo-4,5-dihydro-1H-imidazol-1-yl)acetate]	1,386 M^−1cm^−1	~5	~50%	0.1	621	485	500	13,863 M^−1cm^−1	–	–	–	–
CN(C)c1ccc(/C=C2N=C(/C=C/c3ccccc3)N(CC(=O)OC(C)(C)C)C\2=O)cc1 [Compound 3b, tert-butyl 2-((Z)-4-(4-(dimethylamino)benzylidene)-5-oxo-2-((E)-styryl)-4,5-dihydro-1H-imidazol-1-yl)acetate]	2,089 M^−1cm^−1	~5	does not affect quantum yield	0.232	630	530	533	9,004 M^−1cm^−1	–	–	–	–
CC1=N/C(=C\c2ccc(N(C)C)cc2)C(=O)N1CC(=O)OC(C)(C)C [Compound 2, (Z)-tert-butyl 2-(4-(4-(dimethylamino)benzylidene)-2-methyl-5-oxo-4,5-dihydro-1H-imidazol-1-yl)acetate]	640 M⁻¹ cm⁻¹	–	–	0.027	521	450	452	23,718 M^−1cm^−1	elevated fluorescence	only activates fluorescence when POI forms insoluble aggregates	–	–
Cc1ccc2c(c1)sc(-c1ccc(N(C)C)cc1)[n+]2C.[Cl-] [Thioflavin T, thioflavin T, reference compound]	–	–	–	–	–	–	–	–	–	–	fails to detect soluble oligomers	such stoichiometry was absent
CC1=N/C(=C\c2ccc(O)cc2)C(=O)N1CC(=O)OC(C)(C)C [Compound 1, (Z)-tert-butyl 2-(4-(4-(hydroxy)benzylidene)-2-methyl-5-oxo-4,5-dihydro-1H-imidazol-1-yl)acetate]	20.6 M⁻¹ cm⁻¹	–	–	0.001	429	370	376	20,592 M^−1cm^−1	elevated fluorescence	–	–	–
